Measurements: US20080039438A1, “1B-Methylcarbapenem Derivative and Process for the Preparation Thereof” (Korea Institute of Science and Technology, priority 2004, published 2008)
Converted amounts (≈) assume the structure as drawn.

Experiments:
[1] = tested on: Staphylococcus aureus SG511; assay: MIC against standard strains (agar dilution); type: cell-based; conditions: standard strain Staphylococcus aureus SG511, 37° C., 18 to 20 hours, read-out: Minimum Inhibitory Concentration (MIC)
[2] = tested on: Staphylococcus aureus 285; assay: MIC against standard strains (agar dilution); type: cell-based; conditions: standard strain Staphylococcus aureus 285, 37° C., 18 to 20 hours, read-out: Minimum Inhibitory Concentration (MIC)
Escherichia coli DC 2 = assay: MIC against standard strains (agar dilution); type: cell-based; conditions: Escherichia coli, DC2, read-out: Minimum Inhibitory Concentration (MIC)
Escherichia coli 1507E = assay: MIC against standard strains (agar dilution); type: cell-based; conditions: standard strain Escherichia coli 1507E, 37° C., 18 to 20 hours, read-out: Minimum Inhibitory Concentration (MIC)
[3] = tested on: Pseudomonas aeruginosa 1771; assay: MIC against standard strains (agar dilution); type: cell-based; conditions: standard strain Pseudomonas aeruginosa 1771, 37° C., 18 to 20 hours, read-out: Minimum Inhibitory Concentration (MIC)
[4] = tested on: Klebsiella aerogenes 1522E; assay: MIC against standard strains (agar dilution); type: cell-based; conditions: standard strain Klebsiella aerogenes 1522E, 37° C., 18 to 20 hours, read-out: Minimum Inhibitory Concentration (MIC)
[5] = tested on: Enterobacter cloacae 1321E; assay: MIC against standard strains (agar dilution); type: cell-based; conditions: standard strain Enterobacter cloacae 1321E, 37° C., 18 to 20 hours, read-out: Minimum Inhibitory Concentration (MIC)
Haemophilus influenzae = assay: MIC against clinically isolated aerobic Gram-negative strains; type: cell-based; conditions: 24 strains
Klebsiella oxytoca = assay: as above; type: cell-based; conditions: 15 strains
Enterobacter aerogenes = assay: as above; type: cell-based; conditions: 14 strains; for MIC50 / MIC90: Klebsiella aerogenes
Proteus vulgaris = assay: as above; type: cell-based; conditions: 15 strains
Providentia sp. = assay: as above; type: cell-based; conditions: 13 strains
Acinetobacter baumannii = assay: as above; type: cell-based; conditions: 30 strains
Peptostreptococcus spp. = assay: MIC against clinically isolated anaerobic Gram-positive strains; type: cell-based; conditions: 27 strains
Clostridium perfringens = assay: microbe, parasite or virus in culture; type: cell-based; conditions: for MIC50 / MIC90: Clostridium perfringens; for MIC Range: clinically isolated anaerobic Clostridium perfringens, 13 strains
Clostridium difficile = assay: MIC against clinically isolated anaerobic Gram-positive strains; type: cell-based; conditions: 15 strains; for MIC50 / MIC90: Clostridioides difficile
Protocol: The in vitro antibacterial activities of the sodium 3-carboxylate compound of the present invention prepared in the above Example were measured against standard strains (Table 1), clinically isolated aerobic Gram-positive strains (Table 2), clinically isolated aerobic Gram-negative strains (Table 3), clinically isolated anaerobic Gram-positive strains (Table 4) and clinically isolated anaerobic Gram-negative strains (Table 5) using Gram-positive bacteria such as Streptococcus and Staphylococcus, Gram-negative bacteria such as Escherichia, Salmonella, Krebsiella and Enterobacter. Imipenem (IPM), meropenem (MPM) and ertapenem (EPM) were used as control groups.
The results are shown in Tables 1 to 5, and MIC50 and MIC90 represent the concentrations at which the test strain's growth was inhibited to the extents of 50% and 90%, respectively.

[6] = tested on: Bacteroides thetaiotaomicron; assay: MIC against clinically isolated anaerobic Gram-negative strains; type: cell-based; conditions: for MIC50 / MIC90: Bacteroides thetaiotaomicron; for MIC Range: clinically isolated anaerobic Bacteroides thetaiotaomicron, 15 strains
[7] = Pharmacokinetics test in rats; type: in vivo, Sprague-Dawley rats; conditions: rat, intravenous, 20 mg/kg
Protocol: (§1) The pharmacokinetic behavior of the sodium 3-carboxylate compound of Example was determined as follows. Male Sprague-Dawley rats (weighing 250 g, 14-15 weeks old, 5 rats/group) and Beagle dogs (weighing 10 kg, 3 dogs/group) were maintained by feeding conventional hard food at identical conditions for more than 7 days. The test animals were fasted except water for more than 24 hours before tested. […] 500 μl of each blood sample was centrifuged at 12,000 rpm for 30 seconds, the supernatant was filtered through a 0.22 μm filter, and analyzed by HPLC/UV, and the result was listed in Table 7.

[8] = Pharmacokinetics test in dogs; type: in vivo, Beagle dogs; conditions: dog, intravenous, 5 mg/kg
Protocol: as §1

## C[C@@H](O)[C@H]1C(=O)N2C(C(=O)O)=C(SCCN=CN)C[C@H]12 [IPM, Imipenem]
[1]
  MIC: 0.013 µg/mL (≈ 0.0434 µM)
[2]
  MIC: 0.013 µg/mL (≈ 0.0434 µM)
Escherichia coli DC 2
  MIC: 0.195 µg/mL (≈ 0.651 µM)
Escherichia coli 1507E
  MIC: 0.098 µg/mL (≈ 0.327 µM)
[3]
  MIC: 0.781 µg/mL (≈ 2.61 µM)
[4]
  MIC: 0.195 µg/mL (≈ 0.651 µM)
[5]
  MIC: 0.098 µg/mL (≈ 0.327 µM)
Haemophilus influenzae
  MIC50: 1 µg/mL (≈ 3.34 µM)
  MIC90: 4 µg/mL (≈ 13.4 µM)
  MIC Range: 0.25 to 8 µg/mL
Klebsiella oxytoca
  MIC50: 0.12 µg/mL (≈ 0.401 µM)
  MIC90: 0.5 µg/mL (≈ 1.67 µM)
  MIC Range: 0.06 to 0.5 µg/mL
Enterobacter aerogenes
  MIC Range: 0.12 to 0.5 µg/mL
  MIC50: 0.12 µg/mL (≈ 0.401 µM)
  MIC90: 0.5 µg/mL (≈ 1.67 µM)
Proteus vulgaris
  MIC50: 1 µg/mL (≈ 3.34 µM)
  MIC90: 2 µg/mL (≈ 6.68 µM)
  MIC Range: 0.25 to 2 µg/mL
Providentia sp.
  MIC50: 2 µg/mL (≈ 6.68 µM)
  MIC90: 2 µg/mL (≈ 6.68 µM)
  MIC Range: 0.25 to 4 µg/mL
Acinetobacter baumannii
  MIC50: 1 µg/mL (≈ 3.34 µM)
  MIC90: 8 µg/mL (≈ 26.7 µM)
  MIC Range: 0.25 to 32 µg/mL
Peptostreptococcus spp.
  MIC50: 0.06 µg/mL (≈ 0.2 µM)
  MIC90: 2 µg/mL (≈ 6.68 µM)
  MIC Range: 0.06 to 2 µg/mL
Clostridium perfringens
  MIC50: 0.06 µg/mL (≈ 0.2 µM)
  MIC90: 0.12 µg/mL (≈ 0.401 µM)
  MIC Range: 0.06 to 0.12 µg/mL
Clostridium difficile
  MIC Range: 4 to 16 µg/mL
  MIC50: 8 µg/mL (≈ 26.7 µM)
  MIC90: 8 µg/mL (≈ 26.7 µM)
[6]
  MIC50: 0.5 µg/mL (≈ 1.67 µM)
  MIC90: 4 µg/mL (≈ 13.4 µM)
  MIC Range: 0.12 to 16 µg/mL

## C[C@@H](O)[C@H]1C(=O)N2C(C(=O)O)=C(S[C@@H]3CN[C@H](C(=O)N(C)C)C3)[C@H](C)[C@H]12 [MPM, meropenem]
[1]
  MIC: 0.098 µg/mL (≈ 0.256 µM)
[2]
  MIC: 0.195 µg/mL (≈ 0.509 µM)
Escherichia coli DC 2
  MIC: 0.025 µg/mL (≈ 0.0652 µM)
Escherichia coli 1507E
  MIC: 0.025 µg/mL (≈ 0.0652 µM)
[3]
  MIC: 0.391 µg/mL (≈ 1.02 µM)
[4]
  MIC: 0.049 µg/mL (≈ 0.128 µM)
[5]
  MIC: 0.025 µg/mL (≈ 0.0652 µM)
Haemophilus influenzae
  MIC50: 0.25 µg/mL (≈ 0.652 µM)
  MIC90: 1 µg/mL (≈ 2.61 µM)
  MIC Range: 0.06 to 1 µg/mL
Klebsiella oxytoca
  MIC50: 0.03 µg/mL (≈ 0.0782 µM)
  MIC90: 0.03 µg/mL (≈ 0.0782 µM)
  MIC Range: 0.015 to 0.06 µg/mL
Enterobacter aerogenes
  MIC Range: 0.015 to 0.06 µg/mL
  MIC50: 0.03 µg/mL (≈ 0.0782 µM)
  MIC90: 0.06 µg/mL (≈ 0.156 µM)
Proteus vulgaris
  MIC50: 0.06 µg/mL (≈ 0.156 µM)
  MIC90: 0.06 µg/mL (≈ 0.156 µM)
  MIC Range: 0.03 to 0.06 µg/mL
Providentia sp.
  MIC50: 0.06 µg/mL (≈ 0.156 µM)
  MIC90: 2 µg/mL (≈ 5.22 µM)
  MIC Range: 0.015 to 2 µg/mL
Acinetobacter baumannii
  MIC50: 1 µg/mL (≈ 2.61 µM)
  MIC90: 8 µg/mL (≈ 20.9 µM)
  MIC Range: 0.25 to 64 µg/mL
Peptostreptococcus spp.
  MIC50: 0.06 µg/mL (≈ 0.156 µM)
  MIC90: 4 µg/mL (≈ 10.4 µM)
  MIC Range: 0.06 to 4 µg/mL
Clostridium perfringens
  MIC50: < 0.06 µg/mL
  MIC90: < 0.06 µg/mL
  MIC Range: <0.06 µg/mL
Clostridium difficile
  MIC Range: 1 to 2 µg/mL
  MIC50: 1 µg/mL (≈ 2.61 µM)
  MIC90: 2 µg/mL (≈ 5.22 µM)
[6]
  MIC50: 0.25 µg/mL (≈ 0.652 µM)
  MIC90: 0.5 µg/mL (≈ 1.3 µM)
  MIC Range: 0.25 to 2 µg/mL
[7]
  AUC: 383 ± 36 µg·min/mL
  CL: 54.2 ± 5.3 mL/min/kg
  T1/2: 4.0 ± 0.2 min
[8]; Beagle, supernatant of centrifuged blood
  AUC: 11600 ng·h/mL
[8]
  T1/2: 33 min
